# Molecular target: T1, NBD1 (Homo sapiens, UniProt P13569)
# T1 construct: Purified recombinant NBD1 was produced using previously described methods; made in house
# Assay: Aggregation analysis using differential static light scattering (DSLS), thermal stability of NBD1 (ΔTagg)
# Assay type: binding
# Conditions: ΔTagg versus DMSO control, NBD1 0.2 mg/ml
# In short: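 Read-out is ΔTagg: the aggregation temperature, taken at the inflection of the light-scattering curve, less the average of DMSO control wells. Recombinant NBD1 (0.2 mg/ml, pH7.6 buffer containing 2 mM ATP) with test compound was heated at 1° C. per minute up to 70° C.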
# T1 sequence (P13569 423-646 limits assumed): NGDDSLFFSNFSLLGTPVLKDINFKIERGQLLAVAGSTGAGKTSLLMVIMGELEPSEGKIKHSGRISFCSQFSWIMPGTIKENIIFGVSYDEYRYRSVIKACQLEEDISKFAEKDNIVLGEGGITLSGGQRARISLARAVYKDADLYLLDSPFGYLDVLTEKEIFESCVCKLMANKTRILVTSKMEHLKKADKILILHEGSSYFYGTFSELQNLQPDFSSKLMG
row,SMILES,DSLS 3D (100 μM ΔT)
1,"C[C@H](Cc1cccc([C@@]2(C)CCCC(C)(C)CS(=O)(=O)CCc3c(c(F)c(F)c4[nH]ccc34)Oc3ccc(F)c(c3)-c3nc2nn3C)c1)C(=O)NS(=O)(=O)C1CC1 [Compound 328, (2R)—N-Cyclopropylsulfonyl-2-methyl-3-[3-[(6R)-21,22,28-trifluoro-3,6,10,10-tetramethyl-12,12-dioxo-24-oxa-12λ6-thia-3,4,19,30-tetrazapentacyclo[23.3.1.12,5.015,23.016,20]triaconta-1(29),2(30),4,15,17,20,22,25,27-nonaen-6-yl]phenyl]propenamide]",B (a value above 5 °C and less than or equal to 10 °C is marked “B”)
2,"C[C@@H](Cc1cccc([C@@]2(C)CCCC(C)(C)CS(=O)(=O)CCc3c(c(F)cc4[nH]ccc34)S(=O)(=O)c3ccc(F)c(c3)-c3nc2nn3C)c1)C(=O)O [Compound 329, (2S)-3-[3-[(6R)-22,28-Difluoro-3,6,10,10-tetramethyl-12,12,24,24-tetraoxo-12λ6,24λ6-dithia-3,4,19,30-tetrazapentacyclo[23.3.1.12,5.015,23.016,20]triaconta-1(29),2(30),4,15,17,20,22,25,27-nonaen-6-yl]phenyl]-2-methyl-propanoic Acid]",B (a value above 5 °C and less than or equal to 10 °C is marked “B”)
3,"C[C@@H](Cc1cccc([C@@]2(C)CCCC(C)(C)CS(=O)(=O)CCc3c(c(F)cc4[nH]ccc34)S(=O)(=O)c3cccc(c3)-c3coc2n3)c1)C(=O)O [Compound 331, (2S)-3-[3-[(6R)-22-Fluoro-6,10,10-trimethyl-12,12,24,24-tetraoxo-4-oxa-12λ6,24λ6-dithia-19,30-diazapentacyclo[23.3.1.12,5.015,23.016,20]triaconta-1(29),2,5(30),15,17,20,22,25,27-nonaen-6-yl]phenyl]-2-methyl-propanoic acid]",A (an ΔTagg value less than or equal to 5 °C is marked “A”)
4,CC(=O)OC[C@H](Cc1cccc([C@@]2(C)CCCC(C)(C)CS(=O)(=O)CCc3c(c(F)cc4[nH]ccc34)Sc3ccnc(c3)-c3nc2nn3C)c1)OC(C)=O [Compound 332],A (an ΔTagg value less than or equal to 5 °C is marked “A”)
5,"Cn1nc2nc1-c1cc(ccn1)Sc1c(F)cc3[nH]ccc3c1CCS(=O)(=O)CC(C)(C)CCC[C@]2(C)c1cccc(C[C@H](O)CO)c1 [Compound 333, (2S)-3-[3-[(6R)-22-Fluoro-3,6,10,10-tetramethyl-12,12-dioxo-12λ6,24-dithia-3,4,19,28,30-pentazapentacyclo[23.3.1.12,5.015,23.016,20]triaconta-1(29),2(30),4,15,17,20,22,25,27-nonaen-6-yl]phenyl]propane-1,2-diol]",B (a value above 5 °C and less than or equal to 10 °C is marked “B”)
6,"Cn1nc2nc1-c1cc(ccn1)S(=O)(=O)c1c(F)cc3[nH]ccc3c1CCS(=O)(=O)CC(C)(C)CCC[C@]2(C)c1cccc(C[C@H](O)CO)c1 [Compound 335, (2S)-3-[3-[(6R)-22-Fluoro-3,6,10,10-tetramethyl-12,12,24,24-tetraoxo-12λ6,24λ6-dithia-3,4,19,28,30-pentazapentacyclo[23.3.1.12,5.015,23.016,20]triaconta-1(29),2(30),4,15,17,20,22,25,27-nonaen-6-yl]phenyl]propane-1,2-diol]",A (an ΔTagg value less than or equal to 5 °C is marked “A”)
7,"CC(=O)OC[C@@H](Cc1cccc([C@@]2(C)CCCC(C)(C)CS(=O)(=O)CCc3c(c(F)cc4[nH]ccc34)Sc3ccnc(c3)-c3nc2nn3C)c1)OC(C)=O [Compound 336A, [(2R)-2-Acetoxy-3-[3-[(6R)-22-fluoro-3,6,10,10-tetramethyl-12,12-dioxo-12λ6,24-dithia-3,4,19,28,30-pentazapentacyclo[23.3.1.12,5.015,23.016,20]triaconta-1(29),2(30),4,15,17,20,22,25,27-nonaen-6-yl]phenyl]propyl]Acetate]",A (an ΔTagg value less than or equal to 5 °C is marked “A”)
8,"Cn1nc2nc1-c1cc(ccn1)Sc1c(F)cc3[nH]ccc3c1CCS(=O)(=O)CC(C)(C)CCC[C@]2(C)c1cccc(C[C@@H](O)CO)c1 [Compound 336B, (2R)-3-[3-[(6R)-22-Fluoro-3,6,10,10-tetramethyl-12,12-dioxo-12λ6,24-dithia-3,4,19,28,30-pentazapentacyclo[23.3.1.12,5.015,23.016,20]triaconta-1(29),2(30),4,15,17,20,22,25,27-nonaen-6-yl]phenyl]propane-1,2-diol]",A (an ΔTagg value less than or equal to 5 °C is marked “A”)
9,"Cn1nc2nc1-c1cc(ccn1)S(=O)(=O)c1c(F)cc3[nH]ccc3c1CCS(=O)(=O)CC(C)(C)CCC[C@]2(C)c1cccc(C[C@@H](O)CO)c1 [Compound 338, (2R)-3-[3-[(6R)-22-Fluoro-3,6,10,10-tetramethyl-12,12,24,24-tetraoxo-12λ6,24λ6-dithia-3,4,19,28,30-pentazapentacyclo[23.3.1.12,5.015,23.016,20]triaconta-1(29),2(30),4,15,17,20,22,25,27-nonaen-6-yl]phenyl]propane-1,2-diol]",A (an ΔTagg value less than or equal to 5 °C is marked “A”)
10,"CC(=O)OC[C@H](Cc1cccc([C@@]2(C)CCCC(C)(C)CS(=O)(=O)CCc3c(c(F)c(F)c4[nH]ccc34)Sc3ccnc(c3)-c3nc2nn3C)c1)OC(C)=O [Compound 339, [(2S)-2-acetoxy-3-[3-[(6R)-21,22-difluoro-3,6,10,10-tetramethyl-12,12-dioxo-12λ6,24-dithia-3,4,19,28,30-pentazapentacyclo[23.3.1.12,5.015,23.016,20]triaconta-1(29),2(30),4,15,17,20,22,25,27-nonaen-6-yl]phenyl]propyl]Acetate]",A (an ΔTagg value less than or equal to 5 °C is marked “A”)
11,"Cn1nc2nc1-c1cc(ccn1)Sc1c(F)c(F)c3[nH]ccc3c1CCS(=O)(=O)CC(C)(C)CCC[C@]2(C)c1cccc(C[C@H](O)CO)c1 [Compound 340, (2S)-3-[3-[(6R)-21,22-Difluoro-3,6,10,10-tetramethyl-12,12-dioxo-12λ6,24-dithia-3,4,19,28,30-pentazapentacyclo[23.3.1.12,5.015,23.016,20]triaconta-1(29),2(30),4,15,17,20,22,25,27-nonaen-6-yl]phenyl]propane-1,2-diol]",B (a value above 5 °C and less than or equal to 10 °C is marked “B”)
12,Cn1nc2nc1-c1cc(ccn1)S(=O)(=O)c1c(F)c(F)c3[nH]ccc3c1CCS(=O)(=O)CC(C)(C)CCC[C@]2(C)c1cccc(C[C@H](O)CO)c1 [Compound 342],A (an ΔTagg value less than or equal to 5 °C is marked “A”)
13,"C[C@H](Cc1cccc([C@@]2(C)CCCC(C)(C)CS(=O)(=O)CCc3c(c(F)c(F)c4[nH]cc(F)c34)Oc3ccc(F)c(c3)-c3nc2nn3C)c1)C(=O)O [Compound 345, (2R)-2-Methyl-3-[3-[(6R)-17,21,22,28-tetrafluoro-3,6,10,10-tetramethyl-12,12-dioxo-24-oxa-12λ6-thia-3,4,19,30-tetrazapentacyclo[23.3.1.12,5.015,23.016,20]triaconta-1(29),2(30),4,15,17,20,22,25,27-nonaen-6-yl]phenyl]propanoic Acid]",B (a value above 5 °C and less than or equal to 10 °C is marked “B”)

# From patent publication US12649750B2, “Macrocyclic compounds, compositions, and methods of using thereof” (Sionna Therapeutics Inc., priority 2022, dated 2026)
